This note sets out measurements from patent US9255072B2, “Pyrazole compounds and thiazole compounds as protein kinases inhibitors” (National Health Rsearch Institutes, priority 2011, dated 2016).

One test has as its target T1, VEGFR2 (Homo sapiens, UniProt P35968).
T1 construct: GST-VEGFR2 (residues V789-V1356); GST (N); made in house; host or cells: Sf9 insect cells
Nature of the test: VEGFR2 Kinase-Glo kinase assay. Format: biochemical. On the technique in general: Kinase-Glo measures the ATP left after a reaction by luminescence.

Another test concerns the target T2, VEGFR1 (Homo sapiens, UniProt P17948).
T2 construct: GST-VEGFR1 (residues R781-I1338); GST (N); made in house; host or cells: Sf9 insect cells
T2 sequence (P17948 781-1338): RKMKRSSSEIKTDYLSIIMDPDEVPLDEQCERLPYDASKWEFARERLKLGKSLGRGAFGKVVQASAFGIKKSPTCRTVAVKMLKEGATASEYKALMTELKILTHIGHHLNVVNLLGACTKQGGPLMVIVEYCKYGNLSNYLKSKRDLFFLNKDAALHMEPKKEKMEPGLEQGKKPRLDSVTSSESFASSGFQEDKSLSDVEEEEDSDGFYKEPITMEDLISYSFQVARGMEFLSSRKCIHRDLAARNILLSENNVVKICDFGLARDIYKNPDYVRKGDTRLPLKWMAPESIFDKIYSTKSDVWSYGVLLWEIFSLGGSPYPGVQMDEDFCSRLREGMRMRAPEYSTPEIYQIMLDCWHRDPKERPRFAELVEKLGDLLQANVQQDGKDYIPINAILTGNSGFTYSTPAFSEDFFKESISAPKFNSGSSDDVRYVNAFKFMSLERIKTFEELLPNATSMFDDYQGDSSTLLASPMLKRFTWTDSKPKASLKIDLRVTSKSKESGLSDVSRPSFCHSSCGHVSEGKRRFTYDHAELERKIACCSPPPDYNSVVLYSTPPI
Nature of the test: VEGFR1 Kinase-Glo kinase assay. The test is classed as biochemical.

For the next test, the target named is T3, wt-FLT3 (Homo sapiens, UniProt P36888).
T3 construct: FLT3 kinase catalytic domain (residues Y567˜S993); made in house; host or cells: Sf9 insect cells (baculovirus, pBac-PAK8-GST-FLT3-KD plasmid)
T3 sequence (P36888 567-993): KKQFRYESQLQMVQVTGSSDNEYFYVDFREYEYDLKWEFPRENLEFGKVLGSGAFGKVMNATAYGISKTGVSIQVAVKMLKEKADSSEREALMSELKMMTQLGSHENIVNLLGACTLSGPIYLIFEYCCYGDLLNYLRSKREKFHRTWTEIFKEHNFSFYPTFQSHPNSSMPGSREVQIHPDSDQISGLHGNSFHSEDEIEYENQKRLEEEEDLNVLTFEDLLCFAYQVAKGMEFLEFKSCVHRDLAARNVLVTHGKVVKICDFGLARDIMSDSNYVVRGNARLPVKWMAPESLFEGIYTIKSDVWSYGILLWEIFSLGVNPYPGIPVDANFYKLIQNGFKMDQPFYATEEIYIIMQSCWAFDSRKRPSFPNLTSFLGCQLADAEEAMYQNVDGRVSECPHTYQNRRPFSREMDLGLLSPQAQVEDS
As to the kind of experiment: FLT3 WT Kinase-Glo assay. The test is classed as biochemical. Summed up: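 GST-tagged wild-type FLT3 kinase domain (residues Y567–S993), expressed in Sf9 cells, was used. After the kinase reaction, remaining ATP was detected by Kinase-Glo Plus luminescence following 20 min at 25 °C.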

The next test has as its system MOLM-13 cell. Nature of the test: MTS cell viability assay. Format: cell-based. The conditions noted are these: Homo sapiens, MOLM-13, 72 h, table of representative values. An excerpt: The leukemias cell lines MOLM-13, MV4:11, RSV4:11, MOLT-4, U937, and K562 were purchased from American Type Culture Collection (ATCC, Manassas, Va., USA). The non-leukemias cell lines HCC827, H1975, NCIH460, A431, Huh7, SF268, MCF-7, HCT-116, and normal human fetal fibroblast cell line Detriot 551 were purchased from American Type Culture Collection (ATCC, Manassas, Va., USA). All leukemias cell lines and HCC827, H1975, NCIH460, A431 were maintained in RPMI 1640 medium supplemented with 10% fetal bovine serum (FBS), 10 U/ml penicillin, and 10 µg/ml streptomycin at 37° C. and 5% CO2. The cell lines Huh7, SF268, MCF-7, and Detroit 551 were cultured in DMEM medium supplemented with 10% FBS, 0.01% nonessential amino acids, 10 U/ml penicillin, and 10 µg/ml streptomycin. HCT-116 were cultured in McCoy's 5A medium supplemented with 10% FBS, 0.01% nonessential amino acids, 10 U/ml penicillin, and 10 µg/ml streptomycin. To determine cell viability after drug treatment, assays were performed by seeding 10,000 cells (leukemias cell lines) or 2,500 cells (non-leukemias cell lines) per well in a 96-well culture plate. After 16 h, cells were then treated with vehicle or various concentrations of compound in medium for 72 h. Viable cells were quantitated using the MTS method (Promega, Madison, Wis., USA) according to the manufacturer's recommended protocol. The results were determined by measuring the absorbance at 490 nm using a plate reader (Victor2; PerkinElmer, Shelton, Conn., USA).
(In general: Formazan colour is commonly taken as a measure of viable cells.)

Setting [1] is: VEGFR2 assay, 1 μM ATP, bound in μM, read-out: IC50.
Where [2] appears, read: VEGFR2 assay, 1 μM ATP, ranges in nM, read-out: IC50.
Where [3] appears, read: table of representative values, read-out: IC50 (nM) VEGFR2.
Setting [4] is: VEGFR1 assay, 1 μM ATP, bound in nM, read-out: IC50.
The mark [5] stands for this setting: VEGFR1 assay, 1 μM ATP, bound in μM, read-out: IC50.
Where [6] appears, read: table of representative values, read-out: IC50 (nM) VEGFR1.
[7] abbreviates: FLT3 WT Kinase-Glo, 1 μM ATP, read-out: IC50.
Where [8] appears, read: table of representative values, read-out: IC50 (nM) wt-FLT3.

Like-named read-outs stand apart in the source and are kept apart here.

T1 sequence (P35968 789-1356): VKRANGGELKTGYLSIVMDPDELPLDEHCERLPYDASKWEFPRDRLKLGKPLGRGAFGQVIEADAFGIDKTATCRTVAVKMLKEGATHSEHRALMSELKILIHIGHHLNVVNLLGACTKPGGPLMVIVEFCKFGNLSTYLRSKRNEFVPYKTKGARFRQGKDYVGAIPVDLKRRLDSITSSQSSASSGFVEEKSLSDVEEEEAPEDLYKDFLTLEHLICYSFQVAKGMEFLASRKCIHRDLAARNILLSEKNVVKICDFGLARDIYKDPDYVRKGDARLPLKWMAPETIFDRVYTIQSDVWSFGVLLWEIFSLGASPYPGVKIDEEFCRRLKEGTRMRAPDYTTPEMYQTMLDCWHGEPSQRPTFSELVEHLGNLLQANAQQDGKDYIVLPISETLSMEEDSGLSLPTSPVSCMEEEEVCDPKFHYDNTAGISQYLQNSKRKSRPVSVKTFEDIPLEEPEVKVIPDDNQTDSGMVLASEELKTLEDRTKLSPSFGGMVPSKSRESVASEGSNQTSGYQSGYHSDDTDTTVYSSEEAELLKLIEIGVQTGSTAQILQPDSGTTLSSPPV

As for `CCc1cc(NC(=O)Nc2ccc(-c3cnc(Nc4cc(N5CCC(N)C5)nc(C)n4)s3)cc2)no1` (stereo not drawn) [Compound 119, N-[4-(2-[6-(3-aminotetrahydro-1H-1-pyrrolyl)-2-methyl-4-pyrimidinyl]amino-1,3-thiazol-5-yl)phenyl]N′-(5-ethyl-3-isoxazolyl)urea], the IC50 (usually the point on the concentration scale where inhibition reaches its midpoint) on VEGFR2 (setting [1]) is less than 1 µM; at VEGFR2 (setting [2]) it was 0.001 to 0.055 µM; at VEGFR2 (setting [3]), 0.007 µM; on VEGFR1 (setting [4]), less than 100 nM; on VEGFR1 (setting [5]), less than 1000 nM; at VEGFR1 (setting [6]), 63 nM. Also, the IC50 on wt-FLT3 (setting [7]) was 1 to 20 nM; on wt-FLT3 (setting [8]) it was 14 nM. For the same molecule, growth in the test on MOLM-13 cell was halved (GI50) at 3 nM.
As for `CCc1cc(NC(=O)Nc2ccc(-c3cnc(Nc4cc(N5CCN(CC)CC5)nc(C)n4)s3)cc2)no1` [Compound 112, N-(5-ethyl-3-isoxazolyl)-N′-[4-(2-[6-(4-ethylpiperazino)-2-methyl-4-pyrimidinyl]amino-1,3-thiazol-5-yl)phenyl]urea], the IC50 on VEGFR2 (setting [1]) is less than 1 µM; at VEGFR2 (setting [2]), 0.001 to 0.055 µM; at VEGFR2 (setting [3]), 0.025 µM; on VEGFR1 (setting [4]), less than 100 nM; on VEGFR1 (setting [5]) it was less than 1000 nM; on VEGFR1 (setting [6]) it was 20 nM. The results for the half-maximal inhibitory concentration (IC50) on wt-FLT3 (setting [7]) and at wt-FLT3 (setting [8]) were 1 to 20 nM and 15 nM, respectively. Further, in the test on MOLM-13 cell, the 50% growth inhibitory concentration (GI50) (as a rule, the concentration giving 50% growth inhibition) amounted to 2 nM.
